In ChEMBL document CHEMBL1687764, “Contribution of BlaA and BlaB beta-lactamases to antibiotic susceptibility of Yersinia enterocolitica biovar 1B” (2010):
≈ marks a conversion by molar mass, not a printed value.

Tests used:
Assay type in all cases: functional
Yersinia enterocolitica [1] = assay: Antimicrobial activity against Yersinia enterocolitica Biovar 1B 8081 after 20 hrs by Etest; conditions: Biovar 1B 8081, 20 h
Yersinia enterocolitica [2] = assay: Antimicrobial activity against beta-lactamase A-deficient Yersinia enterocolitica GY5717 after 20 hrs by Etest; conditions: GY5717, 20 h
Yersinia enterocolitica [3] = assay: Antimicrobial activity against beta-lactamase B-deficient Yersinia enterocolitica GY5542 after 20 hrs by Etest; conditions: GY5542, 20 h
Yersinia enterocolitica [4] = assay: Antimicrobial activity against beta-lactamase A and B-deficient Yersinia enterocolitica GY5718 after 20 hrs by Etest; conditions: GY5718, 20 h

Row | Structure (SMILES) | MIC (Yersinia enterocolitica [1]) [µg/mL] | MIC (Yersinia enterocolitica [2]) [µg/mL] | MIC (Yersinia enterocolitica [3]) [µg/mL] | MIC (Yersinia enterocolitica [4]) [µg/mL]
1 | CO/N=C(\C(=O)N[C@@H]1C(=O)N2C(C(=O)O)=C(COC(C)=O)CS[C@H]12)c1csc(N)n1 [CEFOTAXIME] | 0.023 (≈ 0.0505 µM) | 0.023 (≈ 0.0505 µM) | 0.016 (≈ 0.0351 µM) | 0.012 (≈ 0.0263 µM)
2 | CO/N=C(\C(=O)N[C@@H]1C(=O)N2C(C(=O)O)=C(CSc3nc(=O)c(O)nn3C)CS[C@H]12)c1csc(N)n1 [CEFTRIAXONE] | 0.023 (≈ 0.0415 µM) | 0.016 (≈ 0.0289 µM) | 0.016 (≈ 0.0289 µM) | 0.012 (≈ 0.0216 µM)
3 | CO/N=C(\C(=O)N[C@@H]1C(=O)N2C(C(=O)O)=C(COC(N)=O)CS[C@H]12)c1ccco1 [CEFUROXIME] | 0.75 (≈ 1.77 µM) | 0.5 (≈ 1.18 µM) | 0.75 (≈ 1.77 µM) | 0.5 (≈ 1.18 µM)
4 | C[C@@H](O)[C@H]1C(=O)N2C(C(=O)O)=C(SCCNC=N)C[C@H]12 [IMIPENEM ANHYDROUS] | 0.25 (≈ 0.835 µM) | 0.25 (≈ 0.835 µM) | 0.25 (≈ 0.835 µM) | 0.25 (≈ 0.835 µM)

Next, values leading:

Row | MIC (Yersinia enterocolitica [1]) [µg/mL] | MIC (Yersinia enterocolitica [2]) [µg/mL] | MIC (Yersinia enterocolitica [3]) [µg/mL] | MIC (Yersinia enterocolitica [4]) [µg/mL] | Structure (SMILES)
5 | 24 (≈ 65.7 µM) | 1.5 (≈ 4.1 µM) | 24 (≈ 65.7 µM) | 0.38 (≈ 1.04 µM) | CC1(C)S[C@@H]2[C@H](NC(=O)[C@H](N)c3ccc(O)cc3)C(=O)N2[C@H]1C(=O)O [AMOXICILLIN]
6 | 0.75 (≈ 1.45 µM) | 0.19 (≈ 0.367 µM) | 0.75 (≈ 1.45 µM) | 0.094 (≈ 0.182 µM) | CCN1CCN(C(=O)N[C@@H](C(=O)N[C@@H]2C(=O)N3[C@@H]2SC(C)(C)[C@@H]3C(=O)O)c2ccccc2)C(=O)C1=O [PIPERACILLIN]
7 | 24 (≈ 71.8 µM) | 4 (≈ 12 µM) | 24 (≈ 71.8 µM) | 1 (≈ 2.99 µM) | CC1(C)S[C@@H]2[C@H](NC(=O)Cc3ccccc3)C(=O)N2[C@H]1C(=O)O [PENICILLIN G]
8 | 4 (≈ 11.4 µM) | 0.5 (≈ 1.43 µM) | 4 (≈ 11.4 µM) | 0.19 (≈ 0.544 µM) | CC1(C)S[C@@H]2[C@H](NC(=O)[C@H](N)c3ccccc3)C(=O)N2[C@H]1C(=O)O [AMPICILLIN]
